In paper PMC11489226 (Archives of Toxicology, 2024):

Target: T1, CYP2C9 (Homo sapiens, UniProt P11712)
T1 construct: V5-His (vector-encoded) (C); expressed in transfected cells
Test: Metabolism in transgenic HEK293 cells expressing CYP2C9
Type: in vitro ADME
Settings: HEK293CYP2C9; 10 µM substrate, 24 h
Method: For the generation of transgenic cell lines, we used semi-adherent HEK293 cells (DSMZ, ACC305, human embryonic kidney cells) which were cultured on a daily basis in DMEM medium supplemented with 10% (FCS) and 1% penicillin/streptomycin. In a first step CYP1A2, CYP2C8, CYP2C9, CYP3A4, CYP2A6, and CYP2E1 cDNA were cloned into the plasmid pcDNATM3.1/V5-His TOPO® using human liver RNA as a template and using the following primers: CYP1A2 for5′-[…]-3′, CYP1A2 rev 5′-[…]-3′; CYP2C8 for 5′-[…]-3′, CYP2C8 rev 5′-[…]-3′; CYP2C9 for 5′-[…]-3′, CYP2C9 rev 5′-[…]-3′; CYP3A4 for 5′-[…]-3′, CYP3A4 rev 5′-[…]-3′, CYP2A6 for 5′-[…]-3′, CYP2A6 rev 5′-[…]-3′; CYP2E1 for 5′-[…]-3′, CYP2E1 rev 5′-[…]-3′. Final constructs were verified with Sanger DNA sequencing and restriction digestion. For transfection, 3 × 10^6 HEK293 cells were pre-incubated in a 10 cm dish in DMEM medium with 10% FCS, but without antibiotics, for 18 to 24 h. When the cells reached approximately 70% confluency, they were transfected using TransIT-LT1 transfection reagent (Biozol, Eiching, Germany). […]
HEK293 cells overexpressing the respective CYP enzymes were seeded onto 6-well plates and were treated with or without 10 µM of the respective probe drug in DMEM medium for 24 hours at 37 °C and 5 % CO2. […] Analytes were measured by LC-MS/MS either in methanol cell lysates or in DMEM supernatant. […]

T1 sequence (P11712 whole entry): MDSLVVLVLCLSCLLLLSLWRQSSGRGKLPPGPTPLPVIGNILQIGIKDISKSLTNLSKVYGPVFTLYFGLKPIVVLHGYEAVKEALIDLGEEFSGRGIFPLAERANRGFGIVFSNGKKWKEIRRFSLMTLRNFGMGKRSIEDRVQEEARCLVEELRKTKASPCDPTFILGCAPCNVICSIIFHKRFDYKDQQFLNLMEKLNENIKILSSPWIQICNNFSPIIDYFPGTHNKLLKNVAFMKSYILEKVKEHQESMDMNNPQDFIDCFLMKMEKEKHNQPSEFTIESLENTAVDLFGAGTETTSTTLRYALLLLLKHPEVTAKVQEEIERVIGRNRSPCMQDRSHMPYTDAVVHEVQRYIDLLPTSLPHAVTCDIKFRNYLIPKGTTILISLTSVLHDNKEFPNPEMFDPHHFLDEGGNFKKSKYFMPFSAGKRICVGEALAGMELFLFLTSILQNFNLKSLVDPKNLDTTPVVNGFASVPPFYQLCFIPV

Structure (SMILES): Cc1cccc(Nc2ccncc2S(=O)(=O)NC(=O)NC(C)C)c1 [Torasemide]
- Conversion product: Hydroxy torasemide
